{"source": "paper PMC6685951", "about": "“Migration of Bacteriocins Across Gastrointestinal Epithelial and Vascular Endothelial Cells, as Determined Using In Vitro Simulations” (Scientific Reports, 2019)", "key": {"L. monocytogenes EGDe [1]": {"test_system": "L. monocytogenes EGDe", "test": "Antimicrobial activity of NHS-fluorescein labelled versus unlabelled peptides (zone sizes)", "format": "cell-based, Listeria monocytogenes", "conditions": "50 µM, 20 µL spotted on LEB agar seeded with L. monocytogenes EGDe, overnight 37 °C", "experimental": "HPLC purified stock solutions of nisin A, plantaricin 423 and bacST4SA were prepared by dissolving the peptides in sterile ultrapure water. Immediately before conjugating NHS-fluorescein to the peptides, a stock solution of NHS-fluorescein was prepared by dissolving 1 mg of reagent in 100 µL DMF. The amount of NHS-fluorescein to be added to each peptide was calculated using the Eqs (2) and (3):2 mLpeptide×mgpeptide/mLpeptide×mmolpeptide/mgpeptide×15mmolNHS/mmolpeptide=mmolNHS 3 mmolNHS×473.4(MWofNHS)/mmolNHS×100µLDMF/1mg=µLNHS\nThe calculated concentration of NHS-fluorescein was added to the peptides and incubated on ice for 2 h. Non-reacted NHS-fluorescein was removed by Sep-Pak C18 column chromatography. Plantaricin 423 and bacST4SA were eluted with 60% acetonitrile containing 0.1% TFA and nisin A with 40% acetonitrile containing 0.1% TFA. Peptides were freeze dried and resuspended in sterile ultrapure water. Concentrations of the labelled peptides were determined with the BCA assay and diluted to 50 µM. Labelled peptides were filtered through a 0.45 µm HVLP membrane and spotted (20 µL) onto LEB agar seeded with 1% L. monocytogenes EGDe (OD600 0.1). Plates were incubated overnight at 37 °C and the fluorescent peptides visualised under a UVP 3UV Ultraviolet Lamp. Inhibition zones were measured using ImageJ software and compared to those of non-labelled peptides."}, "HUVEC": {"test_system": "HUVEC", "test": "LDH release assay, HUVEC", "format": "cell-based, human", "conditions": "24 h", "experimental": "(§1) For viability and cytotoxicity studies, cells were seeded in 96-well flat-bottom culture plates (1 × 10^4 cells/well). To determine migration of nisin A, plantaricin 423 and bacST4SA across the gastrointestinal epithelial and vascular endothelial barriers, HUVEC and Caco-2 cells were grown on an 8 µm pore size tissue culture insert, as shown in Fig. 1. All cell culture experiments were done in triplicate and have been repeated more than three times.\nHUVEC and Caco-2 cells were exposed to three different concentrations (25 µM, 50 µM and 100 µM) nisin A, plantaricin 423 and bacST4SA and the presence of extracellular LDH determined using the LDH release assay kit. Sterile ultrapure water was used as negative control (referred to as spontaneous LDH activity) and lysis buffer (10X) was used as positive control (referred to as maximum LDH activity). After incubating the cultures in the presence of the peptides for 24 h at 37 °C, culture supernatants were pipetted into a 96-well plate. Reaction mixture was added to the supernatants and plates were incubated at 25 °C for 30 min. Absorbance was measured at 490 nm and 680 nm, respectively. The percentage cytotoxicity was calculated as follows (1):1 %Cytotoxicity=(Compound−treatedLDHactivity)−(SpontaneousLDHactivity)/MaximumLDHactivity−SpontaneousLDHactivity×100"}, "HUVEC monolayer": {"test_system": "HUVEC monolayer", "test": "Migration across HUVEC monolayer on transmigration inserts", "format": "in vitro ADME, human", "conditions": "3 h", "experimental": "as §1\nHUVECs and Caco-2 cells were seeded onto transmigration inserts (Fig. 1) at a cell density of 1 × 10^5 cells/insert (200 µL). Inserts were carefully placed in a 24-well tissue culture plate containing 700 µL cell growth media. […] The integrity of the monolayers was monitored by ensuring trans-epithelial electrical resistance (TEER) readings remained above 300 Ω throughout the experiment (Millicell-ERS volt-ohm meter, Merck)[51],[52],[62]. […] Transmigration inserts containing no monolayer, was used to determine the total fluorescence. Samples were incubated for 3 h while absorbance was measured at 490 nm every 30 min using a microplate reader. Before each reading, inserts were removed and placed into new microplates containing fresh media. […]\nThe percentage of peptide that attached to, or entered the cells was quantified by subtracting the sum of migrated peptide (eq. 4) and retained peptide (eq. 5) from the total fluorescence. […]"}, "L. monocytogenes EGDe [2]": {"test_system": "L. monocytogenes EGDe", "format": "cell-based, Listeria monocytogenes", "conditions": "microtiter plate, Listeria enrichment broth, 37 °C, OD600; lowest concentration inhibiting growth after 18 h", "experimental": "The BCA assay was used according to the manufactures instructions to determine the concentration of the peptides. The MIC of the peptides was determined using a microtiter plate. Briefly, L. monocytogenes EGDe was inoculated into Listeria enrichment broth (LEB) and incubated overnight at 37 °C. The culture was inoculated into fresh LEB and incubated until an OD600 of 0.1 was reached. A series of peptide concentrations was prepared and 50 µL of each added per well, followed by the addition of 150 µL culture. The controls were ddH2O containing 0.1% (v/v) TFA with 150 µL culture or media. Microtiter plates were incubated at 37 °C and OD600 readings were taken at T0, T5 and T18 (hours). The MIC was determined as the lowest peptide concentration required to inhibit the growth of L. monocytogenes EGDe after 18 h."}}, "note": "Where a SMILES comes first, the peptide text is derived from it. Bridges are numbered along the chain shown (N, C = ends).", "data": [{"smiles": "CC(C)C[C@@H]1NC(=O)[C@H](Cc2c[nH]cn2)NC(=O)[C@H](CO)NC(=O)[C@H](C(C)C)NC(=O)[C@H](CO)NC(=O)[C@@H](NC(=O)[C@H](CO)NC(=O)[C@H](Cc2ccccc2)NC(=O)[C@H](C)NC(=O)[C@H](CCC(N)=O)NC(=O)CNC(=O)[C@H](Cc2c[nH]c3ccccc23)NC(=O)[C@H](CC(N)=O)NC(=O)[C@@H](NC(=O)[C@H](CO)NC(=O)[C@@H]2CSSC[C@H](NC(=O)[C@@H](NC(=O)[C@@H](NC(=O)CNC(=O)[C@H](CC(N)=O)NC(=O)CNC(=O)[C@H](Cc3ccc(O)cc3)NC(=O)[C@H](Cc3ccc(O)cc3)NC(=O)[C@@H](N)CCCCN)C(C)C)[C@@H](C)O)C(=O)NCC(=O)N[C@@H](CCCCN)C(=O)N[C@@H](Cc3c[nH]cn3)C(=O)N[C@@H](CO)C(=O)N2)C(C)C)CSSC[C@@H](C(=O)O)NC(=O)[C@H](CCCCN)NC(=O)CNC(=O)[C@H](Cc2c[nH]cn2)NC(=O)CNC(=O)[C@H](Cc2ccccc2)NC(=O)[C@H](CC(N)=O)NC(=O)[C@H](C)NC1=O", "note": "[plantaricin 423] (H-KYYGNGVTCGKHSCSVNWGQAFSCSVSHLANFGHGKC-OH; disulfide 9-14, 24-37; N-terminus and C-terminus assumed)", "values": [{"measurement": "decrease in activity of labelled versus unlabelled peptide (antimicrobial zone sizes)", "setting": "L. monocytogenes EGDe [1]", "result": 24, "unit": "%"}, {"measurement": "cytotoxicity level (LDH release)", "setting": "HUVEC; 100 µM, 37 °C, percentage of maximum LDH release (lysis buffer = 100%)", "result": 21, "unit": "%"}, {"measurement": "toxicity (LDH release)", "setting": "HUVEC; concentrations up to 100 µM", "result": "minimal toxicity"}, {"measurement": "migrated peptide", "setting": "HUVEC monolayer; HUVEC monolayer on 8 µm pore insert, apical addition, NHS-fluorescein labelled peptide 50 µM, 37 °C, TEER above 300 Ω, read at 490 nm, % of no-monolayer control, triplicate", "result": 93, "unit": "%"}, {"measurement": "percentage attached and/or entered peptide", "setting": "HUVEC monolayer; HUVEC, labelled peptide 50 µM, total fluorescence minus migrated and residual peptide", "result": 0, "unit": "%"}, {"measurement": "MIC", "setting": "L. monocytogenes EGDe [2]", "result": 12, "unit": "µM"}]}]}
